Test results: BindingDB's records for doi:10.1021/acs.jmedchem.8b01226 (Recordati, 2019)

Molecular target: Metabotropic glutamate receptor 1 (Rattus norvegicus, UniProt P23385)
Test: Displacement of […] from rat mGlu1 receptor expressed in CHO-TREx cell membranes after 30 mins by liquid scintillation spectrometric analysis

Metabotropic glutamate receptor 1, sequence (P23385 whole entry): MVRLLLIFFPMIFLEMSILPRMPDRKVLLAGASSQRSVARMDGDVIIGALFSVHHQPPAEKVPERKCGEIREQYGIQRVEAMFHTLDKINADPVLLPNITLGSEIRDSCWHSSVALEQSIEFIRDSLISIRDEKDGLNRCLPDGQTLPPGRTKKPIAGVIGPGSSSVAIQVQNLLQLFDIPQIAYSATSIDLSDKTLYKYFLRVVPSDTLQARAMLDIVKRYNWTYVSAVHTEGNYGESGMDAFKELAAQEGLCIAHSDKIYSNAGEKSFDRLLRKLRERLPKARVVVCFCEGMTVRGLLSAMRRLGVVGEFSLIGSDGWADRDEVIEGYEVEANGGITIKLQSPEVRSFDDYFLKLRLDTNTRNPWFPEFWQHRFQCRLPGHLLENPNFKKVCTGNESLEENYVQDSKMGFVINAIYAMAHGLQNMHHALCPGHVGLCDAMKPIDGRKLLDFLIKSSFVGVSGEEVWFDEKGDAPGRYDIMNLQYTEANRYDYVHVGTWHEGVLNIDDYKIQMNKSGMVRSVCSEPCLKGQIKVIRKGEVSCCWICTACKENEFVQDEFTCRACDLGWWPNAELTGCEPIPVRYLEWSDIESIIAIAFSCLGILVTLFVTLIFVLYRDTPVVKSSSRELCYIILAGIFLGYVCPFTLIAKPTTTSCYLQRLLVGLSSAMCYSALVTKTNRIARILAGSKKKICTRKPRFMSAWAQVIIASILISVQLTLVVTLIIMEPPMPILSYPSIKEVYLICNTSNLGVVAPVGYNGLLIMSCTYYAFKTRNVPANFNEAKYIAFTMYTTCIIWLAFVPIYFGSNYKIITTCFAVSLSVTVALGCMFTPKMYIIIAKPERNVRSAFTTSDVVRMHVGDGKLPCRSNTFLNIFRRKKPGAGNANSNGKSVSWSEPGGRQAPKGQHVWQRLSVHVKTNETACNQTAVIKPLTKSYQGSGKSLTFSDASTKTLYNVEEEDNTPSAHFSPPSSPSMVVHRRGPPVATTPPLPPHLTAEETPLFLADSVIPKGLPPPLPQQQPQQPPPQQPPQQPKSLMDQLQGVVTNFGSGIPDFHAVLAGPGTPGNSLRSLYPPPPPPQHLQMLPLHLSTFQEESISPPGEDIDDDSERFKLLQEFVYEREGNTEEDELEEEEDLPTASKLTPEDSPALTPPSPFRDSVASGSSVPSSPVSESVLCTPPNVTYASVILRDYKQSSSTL

- Ki: > 10 µM
SMILES: Cc1nc(C#Cc2cccnc2)cs1 [3-(2-(2-methylthiazol-4-yl)ethynyl)pyridine]
